One may read the Kd as a measure of binding affinity in units of concentration.

Positions of bridges follow the written chain, without caps; N, C: chain ends. Residues, ends and D or L forms follow the SMILES beside them.

The subject of test [1] is human IgG. The test is described as follows: Static (filterplate) binding capacity. As for the experimental part:
These media were used to determine the effect of ligand density on human IgG binding capacity in both static (filterplate) and dynamic (mini-column) modes with commercial immobilized recombinant Protein A (Repligen, IPA400) at a single density as control. Actual ligand densities obtained ranged from 0.17 to 3.2 μmole/ml media as confirmed by quantitative amino acid analysis.
After incubation of the samples, with shaking, at room temperature for one hour, the supernatant liquid from each well, containing unbound IgG, was collected by centrifugation into the cognate well of a collection plate. The assay plate was washed three times with PBST (200 μl/wash) and bound IgG was eluted from the media samples by incubation for 30-60 minutes at room temperature in 100 μl Elution Buffer (100 mM CAPS, pH 11.5). Eluates were collected by centrifugation for analysis. Protein concentrations were determined from A280 measurements and plotted as a function of mg human IgG bound per ml resin vs. mg human IgG applied per ml resin.
The amount of IgG captured (estimated from IgG recovered in the elution step) by the various media is dependent upon both the IgG concentration and the ligand density. […] Under these static conditions, where both ligand and target concentrations are close to KD values, equilibrium binding is established and total capacities cannot be accurately determined. However, over the IgG range of 0 to 25 mg IgG applied per ml resin (0 to 2.5 mg/ml target added to 10 μl of resin), capture of IgG is linear. Beyond this point, up to a level of 200 mg IgG applied per ml resin, saturation becomes more pronounced.

Test [2] has as its target T1, human plasma IgG2 (Homo sapiens, UniProt P01859).
T1 construct: the individual human plasma IgG isoforms: IgG1, IgG2, IgG3, or IgG4; purchased Calbiochem; host or cells: human plasma
The test is described as follows: Fluorescence anisotropy binding, fluorescein-labeled peptide. Here is the method: (§1) All measurements were performed in 384 well microplates with 20 nM fluorescein-labeled peptide and various concentrations of the IgG isoform in a volume of between 10 and 20 μl using a Tecan Polarion fluorescence polarization plate reader. All binding buffers included 0.01% (v/v) Tween 20 to prevent peptide adsorption to the microplate. The binding mixture was equilibrated for 10 minutes in the microplate at 30° C. prior to performing the measurement.
(§2) Peptides were synthesized, fluorescein-labeled and HPLC purified as described above. Binding studies were performed using either a mixture of human plasma IgG isoforms (the Fc protein) or the individual human plasma IgG isoforms: IgG1, IgG2, IgG3, or IgG4.
(§3) Measurements were performed in 384-well microplates with 2 nM fluorescein-labeled peptide and a varied concentration of the IgG isoform target in a volume of 10 μl using a Tecan Polarion fluorescence polarization plate reader. The Fc binding buffer was 50 mM Tris-HCl, 200 mM NaCl, pH 8.0, 0.01% Tween 20. The IgG binding buffer was PBS with 0.01% Tween 20. The binding mixtures were equilibrated for 10 minutes in the microplate at 30° C. prior to performing the measurements.

In test [3] the target is T2, human plasma IgG1 (Homo sapiens, UniProt P01857).
T2 construct: the individual human plasma IgG isoforms: IgG1, IgG2, IgG3, or IgG4; purchased Calbiochem; host or cells: human plasma
The description is as above. Here is the method: as §1, §2, §3

The test system of test [4] is human IgG. Description: Dynamic (mini-column) binding capacity. As for the experimental part: These media were used to determine the effect of ligand density on human IgG binding capacity in both static (filterplate) and dynamic (mini-column) modes with commercial immobilized recombinant Protein A (Repligen, IPA400) at a single density as control.
The IgG solution was loaded onto the column at a flow rate of 0.2 ml/minute (170 cm/hr). […] At the end of the loading period, the column was washed with PBS until the absorbance at 280 nm of the column eluant returned to baseline. […] Neutralizing the pH of the eluted fractions was unnecessary since the total IgG eluted was determined by total protein absorbance at 280 nm.
To establish total media capacities, IgG was loaded onto the columns until the absorbances of the column load and flow through streams were identical (loading to full capacity). After washing the column to baseline, bound IgG was eluted and the total amount captured from this elution fraction determined. The total capacity of the media (mg IgG/ml media) as total IgG captured divided by the column bed volume was calculated.
Additionally, column capacities at 10% breakthrough were calculated from the online A280 measurements of column flowthrough streams. The A280 curves obtained for the column of interest and for an equivalent “blank” column containing hydrolyzed Sepharose FF 4 media were aligned. The difference in areas between these curves (for a retained and non-retained target) from the time of injection to the time at which the A280 value for the column of interest had risen to 10% of the maximum A280 absorbance (100%) obtained for the load solution at 100% IgG capture saturation (10% breakthrough) was graphically integrated. A standard curve was used to relate the integrated area to mg IgG bound and capacity calculated as total IgG bound divided by column bed volume.

Setting [5] is: pH 9.3, 0.01 M sodium bicarbonate.
The mark [6] stands for this setting: pH 9.3, .01 M sodium bicarbonate, 0.2 M NaCl.

T1 sequence (P01859 1-326 isoform P01859-1): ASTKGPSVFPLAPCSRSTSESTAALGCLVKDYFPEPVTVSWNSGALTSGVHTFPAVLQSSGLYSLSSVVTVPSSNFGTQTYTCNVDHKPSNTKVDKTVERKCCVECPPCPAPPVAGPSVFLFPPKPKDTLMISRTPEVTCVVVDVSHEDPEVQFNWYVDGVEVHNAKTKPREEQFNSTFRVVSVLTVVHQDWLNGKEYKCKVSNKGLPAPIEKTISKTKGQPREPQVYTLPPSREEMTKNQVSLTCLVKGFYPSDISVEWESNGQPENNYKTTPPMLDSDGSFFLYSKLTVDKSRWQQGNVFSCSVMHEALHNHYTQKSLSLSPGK
T2 sequence (P01857 1-330 isoform P01857-1): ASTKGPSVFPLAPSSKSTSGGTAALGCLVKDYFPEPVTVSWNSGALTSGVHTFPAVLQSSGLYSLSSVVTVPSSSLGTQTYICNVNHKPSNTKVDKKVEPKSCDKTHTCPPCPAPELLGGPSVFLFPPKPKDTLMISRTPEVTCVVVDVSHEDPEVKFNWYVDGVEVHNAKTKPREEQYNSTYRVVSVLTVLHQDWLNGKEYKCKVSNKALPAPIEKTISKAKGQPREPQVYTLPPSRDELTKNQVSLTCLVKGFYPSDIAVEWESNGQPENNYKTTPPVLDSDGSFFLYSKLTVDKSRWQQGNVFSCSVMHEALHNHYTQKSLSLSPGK

As for `CC[C@H](C)[C@@H]1NC(=O)[C@H](CC(C)C)NC(=O)[C@H](CCC(=O)O)NC(=O)CNC(=O)[C@H](Cc2c[nH]c3ccccc23)NC(=O)[C@H]([C@@H](C)O)NC(=O)[C@H]([C@@H](C)O)NC(=O)[C@H](Cc2ccc(O)cc2)NC(=O)[C@H](C(C)C)NC(=O)[C@@H](NC(=O)[C@H](CCSC)NC(=O)[C@H](Cc2c[nH]cn2)NC(=O)[C@H](CC(=O)O)NC(=O)[C@H](CC(=O)O)NC(=O)CNC(C)=O)CSSC[C@@H](C(=O)N[C@@H](CC(=O)O)C(=O)N[C@@H](CC(N)=O)C(=O)N[C@@H](Cc2c[nH]cn2)C(=O)N[C@@H](CCC(=O)O)C(=O)N2CCC[C@H]2C(=O)NCC(=O)N2CCC[C@H]2C(=O)N[C@@H](CCC(=O)O)C(=O)NCC(=O)NCC(=O)NCC(=O)N[C@@H](CCCCN)C(N)=O)NC(=O)[C@H](Cc2c[nH]c3ccccc23)NC1=O` [DX249] (Ac-GDDHMCVYTTWGELIWCDNHEPGPEGGGK-NH2; disulfide 6-17), the “Capacity (mg IgG/mL resin) Static” value in test [1] (Ligand Density 0.19 μM/mL) turned out to be 1.2 mg IgG/mL resin; in test [1] (Ligand Density 0.86 μM/mL), 9.5 mg IgG/mL resin; in test [1] (Ligand Density 1.63 μM/mL) it was 15.4 mg IgG/mL resin; in test [1] (Ligand Density 3.20 μM/mL), 19.0 mg IgG/mL resin. Further, in test [1] (Table 18, 25 mg human IgG applied per ml resin, average ligand density 1.9 μmole/ml), the “Static Cap.” value was found to be 24 mg/mL. Besides, the Kd in test [2] (pH 7.4, PBS, […] NaCl) is 1.1 ± 0.3 µM; in test [2] (setting [5]), more than 10 µM; in test [3] (pH 5.7, 0.01 M Tris-acetate, 0 M NaCl), 0.074 ± 0.053 µM; in test [3] (pH 5.7, 0.01 M Tris-acetate, […] NaCl), 0.84 ± 0.7 µM; in test [3] (pH 7.4, 0.01 M Tris-HCl) it was 0.4 ± 0.06 µM; in test [3] (pH 7.4, PBS, […] NaCl), 2.9 ± 0.9 µM. The Kd was 3.6 ± 2.5 µM in test [3] (pH 7.4 PBS, […] NaCl, 15% EG); more than 10 µM in test [3] (setting [5]); more than 10 µM in test [3] (setting [6]). The “Effect of including 15% ethylene glycol on binding to IgG1” value in test [3] (15% ethylene glycol) is recorded as “no observed effect”. The “Capacity (mg IgG/mL resin) 10% Breakthrough” value in test [4] (Ligand Density 0.19 μM/mL) is on record as 1.1 mg IgG/mL resin; in test [4] (Ligand Density 0.86 μM/mL), 4.4 mg IgG/mL resin; in test [4] (Ligand Density 1.63 μM/mL), 5.9 mg IgG/mL resin; in test [4] (Ligand Density 3.20 μM/mL) it was 5.5 mg IgG/mL resin. Further, the “Capacity (mg IgG/mL resin) Total Dynamic” value in test [4] (Ligand Density 0.19 μM/mL) amounted to 1.2 mg IgG/mL resin; in test [4] (Ligand Density 0.86 μM/mL), 8.4 mg IgG/mL resin; in test [4] (Ligand Density 1.63 μM/mL) it was 10.3 mg IgG/mL resin; in test [4] (Ligand Density 3.20 μM/mL) it was 16.4 mg IgG/mL resin. The “Dynamic Cap.” value in test [4] (Table 18, total dynamic capacity, average ligand density 1.9 μmole/ml) worked out at 13 mg/mL.
For the molecule `CC(=O)NCC(=O)N[C@@H](CC(=O)O)C(=O)N[C@@H](CC(=O)O)C(=O)N[C@@H](CC(=O)O)C(=O)N[C@@H](Cc1c[nH]cn1)C(=O)N[C@H]1CSSC[C@@H](C(=O)N2CCC[C@H]2C(=O)N[C@@H](Cc2c[nH]cn2)C(=O)NCC(=O)N[C@@H](CCC(=O)O)C(=O)N2CCC[C@H]2C(=O)NCC(=O)N2CCC[C@H]2C(=O)N[C@@H](CCC(=O)O)C(=O)NCC(=O)NCC(=O)NCC(=O)N[C@@H](CCCCN)C(N)=O)NC(=O)[C@H](CCC(=O)O)NC(=O)[C@H](CO)NC(=O)[C@H](CC(N)=O)NC(=O)[C@H](Cc2ccccc2)NC(=O)[C@H](Cc2c[nH]c3ccccc23)NC(=O)[C@H](CCC(=O)O)NC(=O)[C@H](CCCNC(=N)N)NC(=O)[C@H](Cc2ccccc2)NC(=O)[C@H](Cc2c[nH]c3ccccc23)NC(=O)[C@H](Cc2ccc(O)cc2)NC1=O` [DX252] (Ac-GDDDHCYWFREWFNSECPHGEPGPEGGGK-NH2; disulfide 6-17 (inferred)), the Kd in test [2] (pH 5.7, 0.01 M Tris-acetate) was more than 1 µM; in test [2] (pH 7.4, 0.01 M Tris-HCl), 2.1 to 3.4 µM; in test [2] (setting [5]), more than 10 µM; in test [3] (pH 7.4, 0.01 M Tris-HCl) it was 2.1 to 3.4 µM; in test [3] (pH 7.4, PBS, […] NaCl), 2.9 ± 1.6 µM; in test [3] (setting [5]) it was more than 10 µM. The molecule also had a Kd in test [3] (setting [6]) of more than 10 µM.
In the case of “Ac-GDRRACSRDWSGALVWCAGHEPGPEGGGK-NH2 (not fully specified (bridges); printed as Ac-GDRRACSRDWSGALVWCAGHEPGPEGGGK-NH2; cysteine pairing not given here) [DX253]”, the “Capacity (mg IgG/mL resin) Static” value in test [1] (Ligand Density 0.17 μM/mL) amounted to 1.1 mg IgG/mL resin; in test [1] (Ligand Density 0.84 μM/mL), 8.5 mg IgG/mL resin; in test [1] (Ligand Density 1.45 μM/mL) it was 13.5 mg IgG/mL resin; in test [1] (Ligand Density 2.75 μM/mL), 17.4 mg IgG/mL resin. For the same molecule, the “Capacity (mg IgG/mL resin) 10% Breakthrough” value in test [4] (Ligand Density 0.17 μM/mL) worked out at 0.1 mg IgG/mL resin; in test [4] (Ligand Density 0.84 μM/mL), 2.6 mg IgG/mL resin; in test [4] (Ligand Density 1.45 μM/mL) it was 2.9 mg IgG/mL resin; in test [4] (Ligand Density 2.75 μM/mL), 8.5 mg IgG/mL resin. In addition, the “Capacity (mg IgG/mL resin) Total Dynamic” value worked out at 0.6 mg IgG/mL resin in test [4] (Ligand Density 0.17 μM/mL), 5.8 mg IgG/mL resin in test [4] (Ligand Density 0.84 μM/mL), 6.4 mg IgG/mL resin in test [4] (Ligand Density 1.45 μM/mL) and 24.1 mg IgG/mL resin in test [4] (Ligand Density 2.75 μM/mL).
“Prot. A: immobilized recombinant Protein A (RepliGen Corp., product no. IPA-400), positive control [reference compound]”: the “Capacity (mg IgG/mL resin) Static” value in test [1] (Ligand Density not determined) was 11.1 mg IgG/mL resin. The “Capacity at 10% breakthrough as % of total dynamic capacity” value in test [4] was “about 75%”. Further, in test [4] (Ligand Density not determined), the “Capacity (mg IgG/mL resin) 10% Breakthrough” value stood at 12.9 mg IgG/mL resin and the “Capacity (mg IgG/mL resin) Total Dynamic” value was 16.3 mg IgG/mL resin.
